Series [1] concerns H524 cells. Kind of series: Cell Counting Kit-8 cytotoxicity and drug combination, H524. As for the experimental part:
(§1) A Mann-Whitney U test was used for comparison between the normal and SCLC samples. FIG. 1B: IHC for PP2A was conducted on TMA tissue sections and images were captured at 4× or 20× using a 3D-Histech PANNORAMIC SCAN whole slide scanner (3D-Histech, Budapest, Hungary). […] TMAs were scored in normal (n=24) and tumor (n=79) cores on a scale from 0 (no staining/no protein expression) to 3+(strong staining/high protein expression). FIG. 1C: Summary bar graph of the average PP2A subunit staining. IHC staining intensity of normal and tumor cores. […] FIG. 1D: In order to compare the expression of PP2A subunits A and C, cell lysates from seven SCLC cell lines and HBEC 3KT (non-malignant cell line) were subjected to western blotting. FIG. 1E: PP2A activity was determined using a serine/threonine phosphatase activity assay (Millipore) after 24 h exposure to cantharidin (10 μM) and LB-100 (5 μM). […] The Cell Counting Kit-8 assay detected cell H524 and H69 cell viability. […] FIGS. 1I-1K: Graphs depict the mean+SEM of percent viability for cells (n=3). Colony formation assays were used to count the ability of H524 (FIGS. 11 and 1J) and H69 (FIGS. 1K and 1L) cells to form colonies. […] Representative images of colonies at 4× are shown under the graph (n=2).*p<0.05; **, p<0.01; *** p<0.001; ****, p<0.0001. Experiments were repeated in triplicate and representative data are shown.
A general note: Tetrazolium assays rely on reduction of a dye to a coloured formazan, in cell work by metabolically active cells.

In a further series the target is T1, PP2A (Homo sapiens, UniProt P67775).
T1 construct: endogenous in cells; host or cells: H524 (human SCLC) cells
The experiment in a line: PP2A immunoprecipitation Ser/Thr phosphatase activity assay in treated H524 cells. It is filed as cell-based. As to conditions: LB-100 5 μM, 24 h, H524 cells. As for the experimental part: FIGS. 1A-IL depict the effects of LB-100 on PP2A-A expression in SCLC tumors and cells. […] A Mann-Whitney U test was used for comparison between the normal and SCLC samples. FIG. 1B: IHC for PP2A was conducted on TMA tissue sections and images were captured at 4× or 20× using a 3D-Histech PANNORAMIC SCAN whole slide scanner (3D-Histech, Budapest, Hungary). […] TMAs were scored in normal (n=24) and tumor (n=79) cores on a scale from 0 (no staining/no protein expression) to 3+(strong staining/high protein expression). FIG. 1C: Summary bar graph of the average PP2A subunit staining. IHC staining intensity of normal and tumor cores. There was a statistically significant difference between normal and tumor tissue (p<0.001). FIG. 1D: In order to compare the expression of PP2A subunits A and C, cell lysates from seven SCLC cell lines and HBEC 3KT (non-malignant cell line) were subjected to western blotting. FIG. 1E: PP2A activity was determined using a serine/threonine phosphatase activity assay (Millipore) after 24 h exposure to cantharidin (10 μM) and LB-100 (5 μM). […] LB-100 alone or in combination with carboplatin inhibited proliferation and colony formation in SCLC cells. The Cell Counting Kit-8 assay detected cell H524 and H69 cell viability. […] FIGS. 1I-1K: Graphs depict the mean+SEM of percent viability for cells (n=3). […]

The test system of the next series is H524 and H69 cells. The experiment in a line: Colony formation assay. It is filed as cell-based. As to conditions: both cell lines; H524/H69: LB-100 2.5/20 μM, carboplatin 4/20 μM, etoposide 3/30 μM. As for the experimental part:
as §1

The subject of series [2] is H524 cells. Kind of series: Transendothelial extravasation assay through HUVEC monolayer, H524. As to conditions: after 20 h of drug treatment. It is filed as cell-based. As for the experimental part: FIGS. 3A-3H depict SCLC cell invasion through HUVEC monolayer. FIGS. 3A-3D: Graphical representation of H524/H69 cell ability to disrupt a confluent HUVEC monolayer using an electrical substrate-impedance sensing system. Arrows indicate time point when cells were added. Inserts show mean values and SD for each group after 20 h of drug treatment. After treatment, cell viability was counted using an Auto T4 Cell Counter (Nexcelom Cellometer). […] Whole cell Pt accumulation. Graphical representation of LB-100 effect on platinum uptake by SCLC cells. Cells were pretreated with LB-100 (H524—5 μM; H69—20 μM) overnight, then treated with carboplatin for one or four hours (H524—10 μM; H69—30 μM). Whole cell pellet was used for platinum (Pt) measurement. Values are normalized to total protein concentration. FIGS. 3E and 3F: Panels show mean values and SD of Pt accumulation for each group. […] Effect of LB-100 on PP2A expression and apoptosis regulatory proteins in H524 and H69 cells. […]
To discern the effect of LB100 on cell invasion, we tested the ability of SCLC cells to invade though a layer of endothelial cells (ECs). Toward this end, we measured the trans-endothelial monolayer resistance using an electrical substrate-impedance sensing system (Applied Biophysics, Troy, N.Y., USA), as previously described (24). […]

Series [3] addresses protein phosphatase 2A (PP2A) (Homo sapiens, UniProt P67775). The experiment in a line: Inhibition of PP2A versus PP1. It is filed as biochemical. As to conditions: PP2A vs PP1.
For series [4], the system named is H146 cells. As to conditions: human, 72 h.
Source text: (§2) To determine specific cytotoxicity, we used Cell Counting Kit-8 (Dojindo Molecular Technologies, Rockville, Md.) as previously described (50).
The next series has as its system H526 cells. Kind of series: Cell Counting Kit-8 cytotoxicity, H526.
Another series concerns H446 cells. The experiment in a line: Cell Counting Kit-8 cytotoxicity, H446.
The subject of series [5] is H146 cells. Kind of series: Cell Counting Kit-8 cytotoxicity, H146.
Source text: as §2

Like-named read-outs stand apart in the source and are kept apart here.

Chain of protein phosphatase 2A (PP2A) (P67775 whole entry): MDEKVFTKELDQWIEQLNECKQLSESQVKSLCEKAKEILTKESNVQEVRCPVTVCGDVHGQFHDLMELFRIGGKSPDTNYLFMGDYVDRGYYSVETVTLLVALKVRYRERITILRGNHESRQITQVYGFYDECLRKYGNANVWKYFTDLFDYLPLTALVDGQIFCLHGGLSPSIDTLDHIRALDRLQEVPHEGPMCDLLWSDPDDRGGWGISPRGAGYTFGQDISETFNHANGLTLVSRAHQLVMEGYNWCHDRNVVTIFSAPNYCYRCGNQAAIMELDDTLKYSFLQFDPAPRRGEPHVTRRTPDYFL
T1 sequence (P67775 whole entry): as above
T1 sequence (P30153 whole entry partner): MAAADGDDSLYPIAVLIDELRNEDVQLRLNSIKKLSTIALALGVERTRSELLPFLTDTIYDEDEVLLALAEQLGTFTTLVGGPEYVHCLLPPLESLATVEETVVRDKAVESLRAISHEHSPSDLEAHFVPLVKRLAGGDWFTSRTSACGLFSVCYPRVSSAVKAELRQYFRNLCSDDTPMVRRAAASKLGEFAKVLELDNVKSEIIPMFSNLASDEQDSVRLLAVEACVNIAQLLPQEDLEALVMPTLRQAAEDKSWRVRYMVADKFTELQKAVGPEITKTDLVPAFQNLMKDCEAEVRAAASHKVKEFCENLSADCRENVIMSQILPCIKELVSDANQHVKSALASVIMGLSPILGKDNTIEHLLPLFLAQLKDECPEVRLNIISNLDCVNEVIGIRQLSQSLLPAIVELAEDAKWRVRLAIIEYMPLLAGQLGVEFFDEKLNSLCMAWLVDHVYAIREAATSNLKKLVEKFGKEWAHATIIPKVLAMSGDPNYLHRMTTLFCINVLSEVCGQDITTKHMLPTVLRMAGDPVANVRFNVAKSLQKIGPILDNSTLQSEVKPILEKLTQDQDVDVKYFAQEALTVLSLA
Source text for H446 cells: as §2
Source text for H526 cells: as §2

As for `C[NH+]1CCN(C(=O)C2C(C(=O)O)[C@H]3CC[C@@H]2O3)CC1` (stereo in doubt) [LB-100, 3-[(4-Methylpiperazin-1-yl)carbonyl]-7-oxabicyclo[2.2.1]heptane-2-carboxylic acid], the IC50 (usually the point on the concentration scale where inhibition reaches its midpoint) in the series with H524 cells [1] (Homo sapiens, NCI-H524, 72 h, read-out: Cytotoxicity IC50, H524, 72 hours) was below 8 µM; in the series with H524 cells [1] (human, 72 h) it was 5.3 µM; in the series on H146 cells [4] it was above 20 µM; in the series with H526 cells (Homo sapiens, NCI-H526, 72 h, read-out: Cytotoxicity IC50, H526) it was below 8 µM; in the series with H446 cells (Homo sapiens, NCI-H446, 72 h, read-out: Cytotoxicity IC50, H446), below 8 µM; in the series with H146 cells [5] (Homo sapiens, NCI-H146, 72 h, read-out: Cytotoxicity IC50, H146), around 20 µM. Moreover, the “phosphatase activity inhibited to” value at PP2A is reported as 65%. For the same compound, the colony formation result in the series on H524 and H69 cells is reported as “significantly reduced colony formation”. For the same compound, the “% change of HUVEC barrier disruption (transmigration)” value in the series with H524 cells [2] is given as 16.9+2%. Further, in series [3], the “inhibits PP2A more efficiently than protein phosphatase 1 (PP1)” value was “about 80 fold”.

As for `N.N.O=C([O-])C1(C(=O)[O-])CCC1.[Pt+2]` [Carboplatin, reference compound], the IC50 with H524 cells [1] (read-out: Cytotoxicity IC50, H524, 72 hours) is 8.2 µM; with H526 cells (read-out: Cytotoxicity IC50, H526, 72 hours), 33.2 µM; in the series with H446 cells (read-out: Cytotoxicity IC50, H446, 72 hours) it was 26.2 µM; in the series on H146 cells [5] (read-out: Cytotoxicity IC50, H146, 72 hours), 8.3 µM. In addition, the colony formation entry with H524 and H69 cells was “significantly reduced colony formation”. In addition, in the series on H524 cells [2], the “% change of HUVEC barrier disruption (transmigration)” value is reported as 18.2 ± 0.4%.

These data come from US20230065158A1, “OXABICYCLOHEPTANES FOR TREATMENT OF SMALL CELL LUNG CANCER” (Lixte Biotechnology, Inc., priority 2021, published 2023).
